According to a melting point compilation (Tetko et al.; mined from patent text by program, amines drawn as free bases though some values may be those of a salt):

Structure (SMILES)	melting point
CC(NC(=O)CN1CCCC1=O)C(=O)N1CC(=O)NC1(C)C (centres undefined)	198 to 200 °C
O=C(O)Cn1cc(Cc2nc3c(F)c(F)cc(F)c3s2)c2cccc(Cl)c21	228 to 230 °C
CNC(=O)[C@@H](C[C@H](O)[C@H](CC1CCCCC1)NC(=O)OC(C)(C)C)C(C)C	154 to 157 °C
O=C(O)c1ccc(CCOc2c(F)ccc3nc(C(=O)NCc4cccc(OCCOc5nc[nH]n5)c4)[nH]c(=O)c23)cc1	122 to 124 °C
NC(=O)CCSSCCC(N)=O	100 to 101 °C
Cc1cc(C)c(O)c(CC(C)(C)CO)c1	117 °C
Cc1ccc(C(=O)C2=C(O)C(=O)N(c3ncc(S(=O)(=O)N(C)C)s3)C2c2ccc(C(C)C)cc2)cc1 (centres undefined)	237 to 241 °C
O=C(O)Cc1cc(Cl)c(O)cc1F	137 to 138 °C
COCCOc1cc2ncc(C#N)c(Nc3cc(OC)c(OC)c(OC)c3)c2cc1OC	188 to 190 °C
C#Cc1cc(Nc2ncnc3cnc(F)cc23)ccc1F	223 to 226 °C
Cc1noc(NS(=O)(=O)c2ccccc2-c2ccc(-c3ncco3)cc2CN(C)C(=O)c2ccc(Cl)cc2Cl)c1C	134 to 142 °C
Cc1c(-c2ccc(O)cc2O)c(=O)oc2cc(O)ccc12	282 to 283 °C
N#Cc1nn(-c2c(Cl)cc(C(F)(F)F)cc2Cl)c(N)c1-c1cccs1	206 to 207 °C
CC(C)N(C=Nc1ccncc1O)C(C)C	77 to 79 °C
CCn1ncc2c1ncc1c(OC(C)C)nc3cc(C)nn3c12	129 to 130 °C
CS(=O)(=O)c1ccc(-n2nc(C(F)(F)F)cc2-c2ccc(-c3cscn3)cc2)cc1F	125 to 127 °C
Clc1cccc(C2(Cn3cncn3)OCCO2)c1	114 °C
Clc1ccc(CSCc2ccc(Cl)c(Cl)c2)cc1Cl	98 to 99 °C
O=C(N1CCc2ccc(Cl)c(O)c2CC1)C(F)(F)F	133 to 134 °C
COc1cc2c(c(Cl)c1Cl)CCCC2=O	150 to 151 °C
CNC(=O)N(C)C(CCSC)P(=O)(O)O (centres undefined)	164 to 167 °C
N#CC(C#N)=C1C=C(c2ccsc2)S(=O)(=O)C(c2ccsc2)=C1	275 to 285 °C
CCC(NC(=O)C(F)F)c1ccc(Cl)c2nc3n(c12)CCCN3c1c(Cl)cc(Cl)cc1Cl (centres undefined)	211 to 213 °C
COC(=O)c1ccc(OC(=O)c2cc(C)c3c(c2C)C2(CCS3(=O)=O)OCCO2)cc1	206 to 208 °C
NC1=CC([N+](=O)[O-])C(N)(CC(F)(F)F)C=C1 (centres undefined)	104 to 106 °C
C[C@]1(CN2CCC(OCc3ccc(Cl)c(Cl)c3)CC2)Cn2cc([N+](=O)[O-])nc2O1	132 to 136 °C
O=C(c1ccoc1)c1ccc(O)c(Cl)c1Cl	138 to 142 °C

Structure (SMILES)	melting point
CC(=O)c1cc(C(C)(C)C)cc(Br)c1O	98 to 98.5 °C
c1cc2c(cc1C1CCC3(CC1)OCCO3)OCO2	115 to 116 °C
COc1cc(Nc2nc3cccc(-c4ccc5ncccc5c4)c3o2)cc(OC)c1OC	187 to 190 °C
CCS(=O)(=O)CCN1CCCCC1	45 to 47 °C
Nc1nc2c(s1)CCN(CC=Cc1ccsc1)CC2	128 to 132 °C
Cc1cc(C2=NNC(=O)Cc3cc4c(cc32)OCO4)ccc1N	164 to 166 °C
Nc1c(Br)cc(C(=O)CBr)cc1Br	146 to 147 °C
CN1CCC(c2cccc3ccc(C(=O)NCCCc4ccc(Cl)cc4)cc23)CC1	132 to 134 °C
CC(=O)Oc1ccc(C(=O)N2CCN(C(N)=O)C2=O)cc1OC(C)=O	222 to 224 °C
Cc1cc(Cc2nnc(Nc3cc(Br)cc(C(F)(F)F)c3)c3ccccc23)ccn1	122 to 123 °C
NCC#CCCCC(=O)O	180 to 183 °C
N#Cc1ccc(-c2ccc(Cl)cc2)cc1	128 to 130 °C
Cc1cc2c(s1)S(=O)(=O)N(C(C)(C)C)C2=O	80 to 81 °C
N#CNC1=NC(c2ccc(OC(F)(F)F)cc2)(c2cccc(-c3cncnc3)c2)C2=NCCCN12 (centres undefined)	227 to 231 °C
O=C1CSC(c2cccnc2)N1 (centres undefined)	135 to 137 °C
OCc1ccc2c(c1)C(C(Cl)(Cl)Cl)OC(C(Cl)(Cl)Cl)O2 (centres undefined)	134 to 136 °C
CC[Si](C#Cc1ccc2nc(-n3ccnc3)nc(NCCOC)c2c1)(CC)CC	158 to 160 °C
Cc1ccc2c(c1)c1cc(-c3cc(F)cc(F)c3)c(=O)n(C)c1n2C	240 °C
O=C(Cl)c1c(Cl)cc([N+](=O)[O-])cc1Cl	63 to 65 °C
CC(C)(C)C(=O)Nc1cccc(-c2ccnc3c(C(=O)c4ccco4)cnn23)c1	203 to 204 °C
Cc1cc(Nc2nccc(-c3sc(CO)nc3C)n2)ccc1N1CCCCC1	142 to 144 °C
CCN1C(=O)N(c2cc(OC)cc(OC)c2)Cc2cnc(S(C)=O)nc21 (centres undefined)	167 to 169 °C
NC(=O)c1ccc(OC(F)(F)F)c(Cl)c1	98 °C
CCn1cc(C(=O)O)c(=O)c2cc(F)c(N3CCNC(CN(C)C)C3)cc21 (centres undefined)	148 to 150 °C
O=C(NCC1CCCCC1)c1c(Cl)ccc2nc(N3CCC(c4nnn[nH]4)CC3)ccc12	252 to 255 °C
Cc1cc(OCCC[Si](C)(C)C)c(Cl)cc1N(C#N)C=N	143 to 144 °C
c1cnc(N2CCN(Cc3ccc4c(c3)SCO4)CC2)nc1	90 to 91 °C

Results, then the compound that gave them:

melting point	Structure (SMILES)
89 to 90 °C	CCCCCCCCCCC1COc2c(C(=O)OCC)sc(C(=O)OCC)c2O1 (centres undefined)
66 to 69 °C	C=CCN1C(=O)C(C)(CN2CCN(c3ccccc3OC)CC2)N=C1c1cccnc1 (centres undefined)
123 to 125 °C	Cc1cc(-c2ccccc2)nn1C(C)(C)C(=O)N(C)C
138 to 139 °C	COc1ccccc1N1CCN(CC(C(=O)NC(C)(C)C)c2ccccn2)CC1 (centres undefined)
57 °C	COCC(Oc1ccc(Nc2ccc(C(F)(F)F)cc2[N+](=O)[O-])cc1)C(=O)OC (centres undefined)
98 to 100 °C	O=C1c2ccccc2S(=O)(=O)N1CCCCN1CCC2(CC1)Cc1ccccc1O2
142 to 143 °C	O=C1OCCC1Nc1ccc(Nc2ccccc2)cc1 (centres undefined)
242 to 243 °C	Cc1cc2c(-c3ccccc3Cl)c(N)c(=O)n(C)c2cc1C
122 to 124 °C	CCC(=O)CC(=O)c1ccc(C(=O)CC(=O)CC)cc1
86 to 88 °C	CC(C)(C)OC(=O)N1CC2CC(CN(CC(O)COc3ccccc3)C2)C1 (centres undefined)
198 to 200 °C	COc1ccccc1-c1nc(-c2cccnc2)c(C)[nH]1
162 to 164 °C	CCOC(=O)c1nc(N)sc1C(C)=O
64 to 65 °C	CC(=O)OC1C=C(C)C(=O)CC(C)(C)C1OC(=O)C=Cc1ccccc1 (centres undefined)
229 to 230 °C	CC(=O)Nc1ccc2oc(-c3ccc(OCc4ccccc4)c(OCc4ccccc4)c3)c(O)c(=O)c2c1
86 to 87 °C	C[C@@H](CSc1nc2ccccc2cc1-c1ccccc1)NC(=O)OC(C)(C)C
178 to 180 °C	Cc1ccc2c(c1)N(CC(=O)c1ccccc1C)C(=O)C(NC(=O)Nc1ccc(Cl)c(C(=O)O)c1)CN2C(=O)C(C)(C)C (centres undefined)
141 to 144 °C	CCOC(=O)c1cc(NC(=O)C(CSC(C)=O)Cc2ccc(Cl)cc2)c[nH]1 (centres undefined)
176 to 178 °C	CCCOc1ccccc1-c1ccc(C(N)=O)c(=O)[nH]1
139 °C	C=CC(=O)OCCCCCCOc1ccc(C(=O)O)cc1
113 to 115 °C	CCNC(=S)NNC(=O)c1ccc(N)cc1
189 to 191 °C	COCOc1ccc(-n2c(=O)c3c(CN(C)Cc4ccccc4)c(-c4ccc(NC(=O)NOC)cc4)sc3n(Cc3c(F)cccc3F)c2=O)cc1
123 to 124 °C	O=C(N[C@@H]1C[C@H]1c1ccccc1)c1ccc2cnccc2n1 (relative stereo)
55 to 56 °C	COC(=O)c1cccc(-c2ccoc2C(F)F)c1

melting point	Structure (SMILES)
80 to 81 °C	CCN(CC)CC(O)CNC(=O)c1c(OCc2ccccc2)c2ccccc2n1-c1ccccc1 (centres undefined)
97 to 102 °C	COC(=O)C1CC(=O)N(Cc2ccccc2)C1c1c(Cl)cccc1Cl (centres undefined)
293 to 294 °C	Cc1nc(NC(=O)c2cnn3c(C4CC4)cc(-c4ccc(Cl)cc4)nc23)sc1S(=O)(=O)NC(C)(C)CO
151 to 152 °C	CCOC(=O)Cc1ccc(-c2nc(COc3ccc(C=O)cc3OC)c(C)o2)cc1
256 to 258 °C	Cc1cc(Cl)ccc1NC(=O)NCc1ccc2c(c1)CN(C1CCC(=O)NC1=O)C2=O (centres undefined)
144 to 145 °C	O=c1c2cccnc2c(-c2cccc(Cl)c2)nn1-c1ccccc1
65 to 67 °C	CCCCCC1=C(CCCCC)CC(CNC(=O)Nc2c(C(C)C)cccc2C(C)C)SC1 (centres undefined)
123 to 125 °C	CN(C)CCCn1c(-c2ccccc2)cc2c1CCS(=O)(=O)C2
125 to 127 °C	CN(C)n1c(NN)nc2ccccc2c1=O
138 °C	COc1cc(CN[C@@H](C(=O)N[C@H](C(=O)NCc2ccc(OC)cc2O)C(C)C)[C@H](O)[C@H](Cc2ccccc2)NC(=O)OC(C)(C)C)cc(OC)c1
178 to 179 °C	O=C(O)C(=NO)c1ccc(OCCOc2ccc3ccccc3c2)cc1
96 to 104 °C	O=C(O)c1ccc(OCCNC(=O)C2Cc3ccccc3N2S(=O)(=O)c2ccc(-c3cccc(C(F)(F)F)c3)cc2)c(F)c1 (centres undefined)
149 to 151 °C	CCCCc1nc2c(N)nc3ccccc3c2n1CCCCCC(=O)c1ccccc1
122 to 124 °C	Oc1cc2cc(-c3ccccc3)sc2c(Cl)c1Cl
109 to 112 °C	CCNC(=O)Nc1scc(-c2ccccc2)c1C(=O)OCC
228 to 233 °C	CC(C)c1c(C(=O)Nc2ccccc2)c(-c2ccccc2)c(-c2ccc(F)cc2)n1CCCC(O)C(O)CC(=O)N(c1ccccc1)c1ccccc1 (centres undefined)
168 to 169 °C	COC(=O)c1nn(Cc2ccccc2)c2c1CCc1cc(OCc3ccccc3)ccc1-2
106 to 108 °C	OC(CCn1ccnc1)c1ccccc1 (centres undefined)
232 to 234 °C	Cc1ccc(CCC(=O)c2c(O)c3cccnc3n(-c3ccccc3)c2=O)cc1
170 to 173 °C	CCOC(=O)c1ccc(C(Cc2ccncc2)c2ccc(OC)c(OC3CCCC3)c2)cc1 (centres undefined)
213 to 214 °C	CC(=O)Nc1nccc(Oc2ccc3c(C(=O)Nc4ccc(F)c(C(F)(F)F)c4)cccc3c2)n1
156 to 159 °C	COC(=O)C1=C(C)NC(=O)N(C(C)=O)C1c1ccccc1 (centres undefined)
